Assays:
[1] = molecular target: Sigma intracellular receptor 2 (Homo sapiens, UniProt Q5BJF2); experiment: GPCRScan assay: inhibition of Sigma 2; design: radioligand conc. used [nm] 5.0, parental cells HEKT
[2] = molecular target: AP2-associated protein kinase 1 (Homo sapiens) (UniProt Q2M2I8); details: Compound concentration 1000.0 nM
[3] = tested on: Tyrosine-protein kinase ABL1 (Homo sapiens), P00519 [H396P]; details: Compound concentration 1000.0 nM
[4] = tested on: Tyrosine-protein kinase ABL1 (Homo sapiens), P00519 [T315I]; details: Compound concentration 1000.0 nM
[5] = molecular target: Activin receptor type-1B (Homo sapiens) (UniProt P36896); details: Compound concentration 1000.0 nM
Activin receptor type-1B (Homo sapiens), sequence (P36896 whole entry): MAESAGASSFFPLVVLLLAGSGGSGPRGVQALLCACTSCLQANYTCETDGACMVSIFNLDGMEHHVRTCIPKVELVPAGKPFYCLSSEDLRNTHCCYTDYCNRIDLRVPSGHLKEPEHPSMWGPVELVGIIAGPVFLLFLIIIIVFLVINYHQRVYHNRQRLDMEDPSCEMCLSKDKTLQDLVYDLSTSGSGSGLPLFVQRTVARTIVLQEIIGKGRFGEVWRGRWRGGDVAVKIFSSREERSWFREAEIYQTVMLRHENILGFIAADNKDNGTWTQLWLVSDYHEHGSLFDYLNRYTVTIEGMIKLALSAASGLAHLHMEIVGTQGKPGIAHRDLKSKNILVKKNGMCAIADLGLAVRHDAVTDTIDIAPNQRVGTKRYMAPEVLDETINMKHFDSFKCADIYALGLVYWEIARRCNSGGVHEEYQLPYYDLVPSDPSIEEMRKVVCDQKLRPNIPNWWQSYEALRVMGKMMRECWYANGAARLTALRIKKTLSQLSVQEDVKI

[6] = tested on: Serine/threonine-protein kinase B-raf (Homo sapiens), P15056 [V600E]; details: Compound concentration 1000.0 nM
[7] = molecular target: Calcium/calmodulin-dependent protein kinase type II subunit alpha (Homo sapiens) (UniProt Q9UQM7); details: Compound concentration 1000.0 nM
[8] = molecular target: Calcium/calmodulin-dependent protein kinase kinase 2 (Homo sapiens) (UniProt Q96RR4); details: Compound concentration 1000.0 nM
[9] = molecular target: Mitogen-activated protein kinase kinase kinase 12 (Homo sapiens) (UniProt Q12852); details: Compound concentration 1000.0 nM
Mitogen-activated protein kinase kinase kinase 12 (Homo sapiens), sequence (Q12852 whole entry): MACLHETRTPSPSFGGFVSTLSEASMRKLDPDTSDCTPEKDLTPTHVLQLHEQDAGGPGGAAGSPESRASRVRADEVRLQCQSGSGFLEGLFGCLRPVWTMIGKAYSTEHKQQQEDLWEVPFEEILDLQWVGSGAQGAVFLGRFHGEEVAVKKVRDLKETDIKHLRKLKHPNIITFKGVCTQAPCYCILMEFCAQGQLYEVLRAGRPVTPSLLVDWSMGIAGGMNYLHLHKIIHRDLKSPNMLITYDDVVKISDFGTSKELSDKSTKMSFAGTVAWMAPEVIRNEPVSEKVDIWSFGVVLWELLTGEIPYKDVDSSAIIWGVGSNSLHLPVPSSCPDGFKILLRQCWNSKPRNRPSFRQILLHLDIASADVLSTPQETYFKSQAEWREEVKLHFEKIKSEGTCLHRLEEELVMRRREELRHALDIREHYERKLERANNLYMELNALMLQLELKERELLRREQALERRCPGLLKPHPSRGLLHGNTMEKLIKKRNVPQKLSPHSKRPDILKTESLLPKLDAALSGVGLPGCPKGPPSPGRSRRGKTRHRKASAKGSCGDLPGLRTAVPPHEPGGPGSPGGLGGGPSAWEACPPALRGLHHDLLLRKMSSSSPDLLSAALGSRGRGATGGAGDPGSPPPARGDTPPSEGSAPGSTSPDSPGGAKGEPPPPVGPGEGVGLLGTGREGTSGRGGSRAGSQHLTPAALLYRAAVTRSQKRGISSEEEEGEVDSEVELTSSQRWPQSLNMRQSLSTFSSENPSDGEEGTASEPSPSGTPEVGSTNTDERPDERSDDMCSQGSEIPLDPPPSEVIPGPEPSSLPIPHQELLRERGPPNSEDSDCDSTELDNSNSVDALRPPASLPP

[10] = tested on: Epidermal growth factor receptor (Homo sapiens), P00533 [L861Q]; details: Compound concentration 1000.0 nM
[11] = molecular target: Eukaryotic translation initiation factor 2-alpha kinase 1 (Homo sapiens) (UniProt Q9BQI3); details: Compound concentration 1000.0 nM
[12] = molecular target: Ephrin type-B receptor 4 (Homo sapiens) (UniProt P54760); details: Compound concentration 1000.0 nM
[13] = molecular target: Inhibitor of nuclear factor kappa-B kinase subunit alpha (Homo sapiens) (UniProt O15111); details: Compound concentration 1000.0 nM
Inhibitor of nuclear factor kappa-B kinase subunit alpha (Homo sapiens), sequence (O15111 whole entry): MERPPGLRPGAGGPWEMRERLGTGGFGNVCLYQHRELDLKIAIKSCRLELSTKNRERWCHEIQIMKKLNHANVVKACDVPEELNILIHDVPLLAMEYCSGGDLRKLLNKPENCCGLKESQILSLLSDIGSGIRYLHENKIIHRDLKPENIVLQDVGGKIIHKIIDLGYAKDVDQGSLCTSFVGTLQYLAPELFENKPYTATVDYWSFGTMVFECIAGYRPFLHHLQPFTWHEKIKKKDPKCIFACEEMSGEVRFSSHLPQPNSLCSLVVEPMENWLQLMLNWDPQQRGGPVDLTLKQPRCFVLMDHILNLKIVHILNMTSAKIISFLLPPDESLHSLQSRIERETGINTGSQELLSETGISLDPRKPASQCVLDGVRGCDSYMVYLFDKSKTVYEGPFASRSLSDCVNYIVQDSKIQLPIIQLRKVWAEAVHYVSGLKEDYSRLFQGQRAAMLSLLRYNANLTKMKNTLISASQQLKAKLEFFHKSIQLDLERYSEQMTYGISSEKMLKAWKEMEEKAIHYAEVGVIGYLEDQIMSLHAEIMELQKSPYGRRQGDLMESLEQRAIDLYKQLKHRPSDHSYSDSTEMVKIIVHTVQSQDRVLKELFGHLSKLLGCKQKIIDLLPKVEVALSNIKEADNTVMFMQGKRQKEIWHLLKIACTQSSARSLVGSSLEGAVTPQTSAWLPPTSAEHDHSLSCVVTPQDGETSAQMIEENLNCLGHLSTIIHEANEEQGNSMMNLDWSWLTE

[14] = molecular target: Mitogen-activated protein kinase kinase kinase kinase 4 (Homo sapiens) (UniProt O95819); details: Compound concentration 1000.0 nM
[15] = molecular target: Myosin-IIIb (Homo sapiens) (UniProt Q8WXR4); details: Compound concentration 1000.0 nM
[16] = molecular target: Serine/threonine-protein kinase Nek7 (Homo sapiens) (UniProt Q8TDX7); details: Compound concentration 1000.0 nM
[17] = molecular target: Serine/threonine-protein kinase PAK 6 (Homo sapiens) (UniProt Q9NQU5); details: Compound concentration 1000.0 nM
[18] = tested on: Phosphatidylinositol 4,5-bisphosphate 3-kinase catalytic subunit alpha isoform (Homo sapiens), P42336 [H1047Y]; details: Compound concentration 1000.0 nM
[19] = molecular target: Phosphatidylinositol 4,5-bisphosphate 3-kinase catalytic subunit beta isoform (Homo sapiens) (UniProt P42338); details: Compound concentration 1000.0 nM
[20] = molecular target: Phosphatidylinositol 4,5-bisphosphate 3-kinase catalytic subunit delta isoform (Homo sapiens) (UniProt O00329); details: Compound concentration 1000.0 nM
[21] = molecular target: Phosphatidylinositol 4-phosphate 5-kinase type-1 gamma (Homo sapiens) (UniProt O60331); details: Compound concentration 1000.0 nM
Phosphatidylinositol 4-phosphate 5-kinase type-1 gamma (Homo sapiens), sequence (O60331 whole entry): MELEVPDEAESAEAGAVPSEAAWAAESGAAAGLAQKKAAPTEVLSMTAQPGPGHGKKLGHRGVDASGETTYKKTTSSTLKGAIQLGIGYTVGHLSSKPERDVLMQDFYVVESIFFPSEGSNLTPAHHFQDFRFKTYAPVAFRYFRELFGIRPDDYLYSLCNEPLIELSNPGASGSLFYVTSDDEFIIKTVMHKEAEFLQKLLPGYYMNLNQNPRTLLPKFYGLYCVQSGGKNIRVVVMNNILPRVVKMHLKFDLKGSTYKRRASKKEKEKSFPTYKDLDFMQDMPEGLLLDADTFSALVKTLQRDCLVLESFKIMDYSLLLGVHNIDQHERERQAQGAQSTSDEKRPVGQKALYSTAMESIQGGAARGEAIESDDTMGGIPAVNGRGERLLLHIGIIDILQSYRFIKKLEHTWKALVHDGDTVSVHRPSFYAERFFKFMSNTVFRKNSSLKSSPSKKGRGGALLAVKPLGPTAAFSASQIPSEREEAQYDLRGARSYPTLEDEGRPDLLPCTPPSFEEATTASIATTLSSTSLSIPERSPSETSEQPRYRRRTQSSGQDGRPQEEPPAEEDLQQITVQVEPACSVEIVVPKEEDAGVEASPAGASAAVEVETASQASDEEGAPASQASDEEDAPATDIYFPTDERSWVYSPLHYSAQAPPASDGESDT

[22] = molecular target: Protein kinase C epsilon type (Homo sapiens) (UniProt Q02156); details: Compound concentration 1000.0 nM
[23] = molecular target: Ribosomal protein S6 kinase alpha-1 (Homo sapiens) (UniProt Q15418); details: Compound concentration 1000.0 nM
Ribosomal protein S6 kinase alpha-1 (Homo sapiens), sequence (Q15418 whole entry): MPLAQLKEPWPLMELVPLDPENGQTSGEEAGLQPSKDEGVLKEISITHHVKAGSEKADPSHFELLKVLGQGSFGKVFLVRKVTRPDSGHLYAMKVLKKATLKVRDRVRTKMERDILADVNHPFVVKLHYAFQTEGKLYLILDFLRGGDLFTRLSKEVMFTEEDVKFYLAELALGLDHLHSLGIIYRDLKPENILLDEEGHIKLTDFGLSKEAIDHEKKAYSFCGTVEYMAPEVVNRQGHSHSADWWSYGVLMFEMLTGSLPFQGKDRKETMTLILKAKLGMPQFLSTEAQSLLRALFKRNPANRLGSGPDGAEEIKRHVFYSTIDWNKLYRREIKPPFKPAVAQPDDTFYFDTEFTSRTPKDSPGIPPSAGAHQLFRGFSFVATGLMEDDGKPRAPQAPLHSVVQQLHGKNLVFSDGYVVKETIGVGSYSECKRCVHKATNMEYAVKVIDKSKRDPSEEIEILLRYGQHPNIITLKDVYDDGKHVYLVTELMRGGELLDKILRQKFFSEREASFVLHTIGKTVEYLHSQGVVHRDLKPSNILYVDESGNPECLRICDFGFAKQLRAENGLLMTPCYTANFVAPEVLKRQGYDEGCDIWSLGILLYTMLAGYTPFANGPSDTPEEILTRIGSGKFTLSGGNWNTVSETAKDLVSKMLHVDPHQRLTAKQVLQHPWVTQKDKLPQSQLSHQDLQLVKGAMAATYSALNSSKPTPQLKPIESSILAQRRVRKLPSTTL

[24] = molecular target: Ribosomal protein S6 kinase alpha-6 (Homo sapiens) (UniProt Q9UK32); details: Compound concentration 1000.0 nM
Ribosomal protein S6 kinase alpha-6 (Homo sapiens), sequence (Q9UK32 whole entry): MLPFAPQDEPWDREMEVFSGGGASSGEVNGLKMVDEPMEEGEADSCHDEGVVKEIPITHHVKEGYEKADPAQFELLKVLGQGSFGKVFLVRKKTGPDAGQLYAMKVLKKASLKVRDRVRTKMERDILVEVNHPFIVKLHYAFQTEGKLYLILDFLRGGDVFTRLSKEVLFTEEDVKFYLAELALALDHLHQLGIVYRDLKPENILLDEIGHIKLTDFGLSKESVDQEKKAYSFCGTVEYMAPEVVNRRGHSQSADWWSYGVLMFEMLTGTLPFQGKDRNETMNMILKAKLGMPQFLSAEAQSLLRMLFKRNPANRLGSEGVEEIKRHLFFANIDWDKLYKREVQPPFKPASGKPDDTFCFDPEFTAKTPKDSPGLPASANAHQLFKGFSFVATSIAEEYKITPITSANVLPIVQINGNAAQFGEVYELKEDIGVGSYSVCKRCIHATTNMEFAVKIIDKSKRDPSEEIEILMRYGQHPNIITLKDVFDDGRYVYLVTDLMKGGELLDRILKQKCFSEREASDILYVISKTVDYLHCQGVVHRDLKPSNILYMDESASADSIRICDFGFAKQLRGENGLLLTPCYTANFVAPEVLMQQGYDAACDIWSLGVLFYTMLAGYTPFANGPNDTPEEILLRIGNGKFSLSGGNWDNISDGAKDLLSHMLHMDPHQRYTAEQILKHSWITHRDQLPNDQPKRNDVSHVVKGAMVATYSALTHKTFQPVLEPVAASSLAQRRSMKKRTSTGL

[25] = molecular target: T1, 5-hydroxytryptamine receptor 2C (Homo sapiens) (UniProt P28335); details: Compound concentration 10.0 uM
T1 sequence (whole entry): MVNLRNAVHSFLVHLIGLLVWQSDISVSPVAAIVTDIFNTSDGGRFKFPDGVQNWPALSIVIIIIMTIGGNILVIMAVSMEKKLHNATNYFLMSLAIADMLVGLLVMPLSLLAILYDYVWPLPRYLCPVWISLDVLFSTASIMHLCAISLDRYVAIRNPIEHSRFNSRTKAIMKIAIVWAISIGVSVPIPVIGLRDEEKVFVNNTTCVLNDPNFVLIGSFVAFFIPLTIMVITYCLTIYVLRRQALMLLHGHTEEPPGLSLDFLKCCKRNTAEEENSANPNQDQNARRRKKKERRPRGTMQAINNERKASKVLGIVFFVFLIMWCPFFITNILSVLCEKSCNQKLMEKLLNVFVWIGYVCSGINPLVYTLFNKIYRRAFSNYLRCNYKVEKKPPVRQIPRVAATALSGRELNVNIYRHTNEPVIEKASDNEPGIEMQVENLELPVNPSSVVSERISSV

D(1A) dopamine receptor = D(1A) dopamine receptor (Homo sapiens, UniProt P21728); details: Compound concentration 10.0 uM
D(1A) dopamine receptor, sequence (P21728 whole entry): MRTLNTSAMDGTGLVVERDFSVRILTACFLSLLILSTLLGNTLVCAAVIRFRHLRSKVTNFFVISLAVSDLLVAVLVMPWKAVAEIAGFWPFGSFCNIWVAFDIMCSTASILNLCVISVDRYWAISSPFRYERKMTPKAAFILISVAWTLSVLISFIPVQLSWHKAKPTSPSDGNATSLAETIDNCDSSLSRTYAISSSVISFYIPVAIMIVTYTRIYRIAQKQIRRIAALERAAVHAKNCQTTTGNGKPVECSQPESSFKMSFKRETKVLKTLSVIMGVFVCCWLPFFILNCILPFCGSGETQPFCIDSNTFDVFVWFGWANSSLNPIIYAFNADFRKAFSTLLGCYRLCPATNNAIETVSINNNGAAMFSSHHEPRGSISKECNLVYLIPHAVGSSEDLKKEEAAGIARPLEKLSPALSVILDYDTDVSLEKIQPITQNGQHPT

[26] = molecular target: Sodium-dependent noradrenaline transporter (Homo sapiens, UniProt P23975); details: Compound concentration 10.0 uM
[27] = molecular target: Sodium-dependent dopamine transporter (Homo sapiens, UniProt Q01959); details: Compound concentration 10.0 uM
[28] = molecular target: Histamine H3 receptor (Homo sapiens) (UniProt Q9Y5N1); details: Compound concentration 10.0 uM
[29] = molecular target: Beta-2 adrenergic receptor (Homo sapiens) (UniProt P07550); details: Compound concentration 10.0 uM
[30] = molecular target: T2, Alpha-1D adrenergic receptor (Homo sapiens) (UniProt P25100); details: Compound concentration 10.0 uM
T2 sequence (whole entry): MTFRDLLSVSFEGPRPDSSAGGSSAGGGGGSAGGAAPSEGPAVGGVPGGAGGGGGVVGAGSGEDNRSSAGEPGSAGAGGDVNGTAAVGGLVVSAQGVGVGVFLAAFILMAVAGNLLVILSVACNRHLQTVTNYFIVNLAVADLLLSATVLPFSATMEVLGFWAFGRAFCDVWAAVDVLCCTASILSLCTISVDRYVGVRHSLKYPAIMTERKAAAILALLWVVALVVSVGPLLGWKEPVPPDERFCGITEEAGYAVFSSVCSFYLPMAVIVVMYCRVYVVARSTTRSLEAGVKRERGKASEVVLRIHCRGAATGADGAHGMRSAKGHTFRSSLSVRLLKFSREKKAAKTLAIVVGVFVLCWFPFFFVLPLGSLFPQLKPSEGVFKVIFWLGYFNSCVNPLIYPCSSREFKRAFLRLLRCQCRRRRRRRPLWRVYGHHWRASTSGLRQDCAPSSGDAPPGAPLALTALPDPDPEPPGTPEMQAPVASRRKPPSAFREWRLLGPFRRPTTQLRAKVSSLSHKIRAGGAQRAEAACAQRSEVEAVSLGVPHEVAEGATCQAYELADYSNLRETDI

Sigma intracellular receptor 2, sequence (Q5BJF2 whole entry): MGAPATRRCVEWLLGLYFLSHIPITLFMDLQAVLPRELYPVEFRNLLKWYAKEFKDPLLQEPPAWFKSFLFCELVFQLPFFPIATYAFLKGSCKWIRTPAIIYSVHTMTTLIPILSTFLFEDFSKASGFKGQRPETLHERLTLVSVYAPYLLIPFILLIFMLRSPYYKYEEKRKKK

| Structure (SMILES) | Ki [1] [nM] | residual activity [2] [%] | residual activity [3] [%] | residual activity [4] [%] | residual activity [5] [%] | residual activity [6] [%] | residual activity [7] [%] | residual activity [8] [%] | residual activity [9] [%] | residual activity [10] [%] | residual activity [11] [%] | residual activity [12] [%] | residual activity [13] [%] | residual activity [14] [%] | residual activity [15] [%] | residual activity [16] [%] | residual activity [17] [%] | residual activity [18] [%] | residual activity [19] [%] | residual activity [20] [%] | other results |
| --- | --- | --- | --- | --- | --- | --- | --- | --- | --- | --- | --- | --- | --- | --- | --- | --- | --- | --- | --- | --- | --- |
| Cc1c(C(=O)O)cc(-c2ccc(C3CCNCC3)cc2)c2ccc(-c3ccc(C(F)(F)F)cc3)cc12 [PPTN-NC] | 1700 | 100 | 72 | 100 | 100 | 100 | 100 | 100 | 100 | 100 | 77 | 100 | 98 | 76 | 75 | 100 | 100 | 100 | 100 | 100 | residual activity [21]: 98%; residual activity [22]: 100%; residual activity [23]: 100%; residual activity [24]: 100%; inhibition [25]: -4.53%; inhibition (D(1A) dopamine receptor): 61.4%; inhibition [26]: 11.2%; inhibition [27]: 31.2%; inhibition [28]: 7.04%; inhibition [29]: 27.8%; inhibition [30]: 13.3% |
| O=C(O)c1cc(-c2ccc(C3CCNCC3)cc2)c2ccc(-c3ccc(C(F)(F)F)cc3)cc2c1 [PPTN] | 1120 | 100 | 62 | 100 | 100 | 100 | 100 | 100 | 100 | 100 | 98 | 100 | 87 | 87 | 69 | 100 | 100 | 84 | 100 | 98 | residual activity [21]: 100%; residual activity [22]: 100%; residual activity [23]: 100%; residual activity [24]: 100%; inhibition [25]: 11.2%; inhibition (D(1A) dopamine receptor): 71.4%; inhibition [26]: 23.6%; inhibition [27]: 37.7%; inhibition [28]: 0.03%; inhibition [29]: 38.9%; inhibition [30]: 33.5% |
